System: SK-N-MM (SKNMM-MYCN, doxycycline-inducible MYCN)
Experiment: area under dose-response curve (CellTiter-Glo viability normalised to plate controls) (AUC (arbitrary units)); higher = more loss of viability; extreme values may be limits of the assay
Summary of the method: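 In 96-well plates, SK-N-MM cells with doxycycline-inducible MYCN (1250 cells/100 μL) were given medium with or without doxycycline about 24 h after plating. Compound dilution series of 10 points at 1:3 were added two days later and again on day 4, and CellTiter-Glo luminescence was recorded 3 or 8 days after drugging. The area under the dose-response curve was derived from log2 signals normalised to the positive and negative controls on each plate.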

[1] = MYCN induction (doxycycline): +doxycycline (MYCN induced), time after drugging: 3 days
[2] = MYCN induction (doxycycline): +doxycycline (MYCN induced), time after drugging: 8 days
[3] = MYCN induction (doxycycline): no doxycycline (MYCN not induced), time after drugging: 3 days
[4] = MYCN induction (doxycycline): no doxycycline (MYCN not induced), time after drugging: 8 days

| SMILES | area under dose-response curve [1] | area under dose-response curve [2] | area under dose-response curve [3] | area under dose-response curve [4] |
| --- | --- | --- | --- | --- |
| CN(C)C(=O)c1cc2cnc(Nc3ccc(N4CCNCC4)cn3)nc2n1C1CCCC1 [RIBOCICLIB] | 7.07e-05 | 12.9 | 0 | 15.9 |
| COc1cc(NCc2ccc3nc(N)nc(N)c3c2C)cc(OC)c1OC [TRIMETREXATE] | 27.5 | 140 | 18.8 | 47.1 |
| Cc1nc(-c2cn3c(n2)-c2ccc(-c4cnn(C(C)(C)C(N)=O)c4)cc2OCC3)n(C(C)C)n1 [TASELISIB] | 23.1 | 34.9 | 34.6 | 39 |
| CC[C@]1(O)C[C@@H]2CN(CCc3c([nH]c4ccccc34)[C@@](C(=O)OC)(c3cc4c(cc3OC)N(C)[C@H]3[C@@](O)(C(=O)OC)[C@H](OC(C)=O)[C@]5(CC)C=CCN6CC[C@]43[C@@H]65)C2)C1 [VINBLASTINE] | 190 | 284 | 98.1 | 177 |
| O=P1(NCCCl)OCCCN1CCCl (stereo not given) [IFOSFAMIDE] | 0 | 0 | 0 | – |
| COC1=CC(c2cc3ccccc3[nH]2)=N/C1=C\c1[nH]c(C)cc1C [OBATOCLAX] | 195 | 255 | 178 | 229 |
| CN(C)CCCNC(=O)c1ccc(-c2cc(O)c3ncccc3c2)cc1 [ML324] | 16.5 | 109 | 4.85 | 68.6 |
| CN(C)C/C=C/C(=O)Nc1cc2c(Nc3ccc(F)c(Cl)c3)ncnc2cc1O[C@H]1CCOC1 [AFATINIB] | 137 | 145 | 140 | 121 |
| CC1CS(=O)(=O)CCN1/N=C/c1ccc([N+](=O)[O-])o1 (stereo not given) [NIFURTIMOX] | 3.58 | 0 | 0 | 0.144 |
| CC(C)C[C@H](NC(=O)[C@H](CCc1ccccc1)NC(=O)CN1CCOCC1)C(=O)N[C@@H](Cc1ccccc1)C(=O)N[C@@H](CC(C)C)C(=O)[C@@]1(C)CO1 [CARFILZOMIB] | 295 | 404 | 286 | 398 |
| C/C(=C\c1csc(C)n1)[C@@H]1C[C@@H]2O[C@]2(C)CCC[C@H](C)[C@H](O)[C@@H](C)C(=O)C(C)(C)[C@@H](O)CC(=O)N1 [IXABEPILONE] | 121 | 199 | 89.9 | 138 |
| CCOc1cc(C(C)(C)C)ccc1C1=N[C@@](C)(c2ccc(Cl)cc2)[C@@](C)(c2ccc(Cl)cc2)N1C(=O)N1CCN(CCCS(C)(=O)=O)CC1 [RG7112] | 0 | 0 | 0 | 0 |
| Nc1ncn([C@@H]2O[C@H](CO)[C@@H](O)[C@H]2O)c(=O)n1 [5-AZACYTIDINE] | 33.8 | 58.3 | 21.5 | 23.6 |
| CN(C)CCCNc1c2ccccc2nc2c1[nH]c1ccccc12 [SYUIQ-5] | 219 | 262 | 196 | 225 |
| Nc1cc(C(F)(F)F)c(-c2cc(N3CCOCC3)nc(N3CCOCC3)n2)cn1 [BUPARLISIB] | 91.8 | 150 | 65.7 | 86.9 |
| N#CN=C(NCCCCCCOc1ccc(Cl)cc1)Nc1ccncc1 [GMX-1778] | 172 | 348 | 119 | 338 |
| COc1ccc2c(c1OC)C(=O)O[C@@H]2[C@H]1c2c(cc3c(c2OC)OCO3)CCN1C [NOSCAPINE] | 0.556 | 19.8 | 0 | – |
| Cc1ccc(NC(=O)c2ccc(CN3CCN(C)CC3)cc2)cc1Nc1nc(-c2cccnc2)cs1 [MASITINIB] | 0 | 0 | 0 | 2.84 |
| C[C@H]1[C@@H](O)O[C@@H]2O[C@@]3(C)CC[C@H]4[C@H](C)CC[C@@H]1[C@@]24OO3 [DIHYDROARTEMISININ] | 62.1 | 116 | 37 | 73.1 |
| CO[C@H]1C[C@@H]2CC[C@@H](C)[C@@](O)(O2)C(=O)C(=O)N2CCCC[C@H]2C(=O)O[C@H]([C@H](C)C[C@@H]2CC[C@@H](O)[C@H](OC)C2)CC(=O)[C@H](C)/C=C(\C)[C@@H](O)[C@@H](OC)C(=O)[C@H](C)C[C@H](C)/C=C/C=C/C=C/1C [SIROLIMUS] | 18.2 | 7.23 | 41.5 | 24.7 |
| Cc1cn(-c2cc(NC(=O)c3ccc(C)c(Nc4nccc(-c5cccnc5)n4)c3)cc(C(F)(F)F)c2)cn1 [NILOTINIB] | 2.25 | 2.7 | 2.22 | 3.03 |
| C=C1C[C@@H]2CC[C@@]34C[C@H]5O[C@H]6[C@@H](O3)[C@H]3O[C@H](CC[C@@H]3O[C@H]6[C@H]5O4)CC(=O)C[C@@H]3[C@@H](OC)[C@@H](C[C@H](O)CN)O[C@H]3C[C@H]3O[C@@H](CC[C@@H]1O2)C[C@@H](C)C3=C [ERIBULIN] | 0 | 0.398 | 0 | 52.7 |
| CS(=O)(=O)c1ccc(-c2cnc(N)c(C(=O)Nc3ccccc3)n2)cc1 [VE-821] | 41.9 | 75.9 | 8.07 | 32 |
| CS(=O)(=O)CCNCc1ccc(-c2ccc3ncnc(Nc4ccc(OCc5cccc(F)c5)c(Cl)c4)c3c2)o1 [LAPATINIB] | 0 | 0 | 0 | 0 |
| CN(Cc1cnc2nc(N)nc(N)c2n1)c1ccc(C(=O)N[C@@H](CCC(=O)O)C(=O)O)cc1 [METHOTREXATE] | 3.6 | 18.6 | 0.0478 | – |
| Cc1ccc(Nc2nccc(N(C)c3ccc4c(C)n(C)nc4c3)n2)cc1S(N)(=O)=O [PAZOPANIB] | 21.1 | 40.1 | 18.1 | 29.2 |
| CNC(=O)c1ccccc1Sc1ccc2c(/C=C/c3ccccn3)n[nH]c2c1 [AXITINIB] | 52.9 | 109 | 32.4 | 69.7 |

Reference: the supplement of paper PMC7021759
